Laboratory results published in PMC9851200, “Multiparameter phenotypic screening for endogenous TFEB and TFE3 translocation identifies novel chemical series modulating lysosome function” (Autophagy, 2022).
Where two headings read alike, the source gives them in different places.

Tests used:
Format in all cases: binding
[1] = target: kinases (KINOMEscan panel) (Homo sapiens, UniProt Q13557); details: kinase CAMK2D; NEW KINOMEscan
[2] = target: kinases (KINOMEscan panel) (Homo sapiens, UniProt P53355); details: kinase DAPK1; NEW KINOMEscan
Chain of kinases (KINOMEscan panel) (Homo sapiens, UniProt P53355) (P53355 whole entry): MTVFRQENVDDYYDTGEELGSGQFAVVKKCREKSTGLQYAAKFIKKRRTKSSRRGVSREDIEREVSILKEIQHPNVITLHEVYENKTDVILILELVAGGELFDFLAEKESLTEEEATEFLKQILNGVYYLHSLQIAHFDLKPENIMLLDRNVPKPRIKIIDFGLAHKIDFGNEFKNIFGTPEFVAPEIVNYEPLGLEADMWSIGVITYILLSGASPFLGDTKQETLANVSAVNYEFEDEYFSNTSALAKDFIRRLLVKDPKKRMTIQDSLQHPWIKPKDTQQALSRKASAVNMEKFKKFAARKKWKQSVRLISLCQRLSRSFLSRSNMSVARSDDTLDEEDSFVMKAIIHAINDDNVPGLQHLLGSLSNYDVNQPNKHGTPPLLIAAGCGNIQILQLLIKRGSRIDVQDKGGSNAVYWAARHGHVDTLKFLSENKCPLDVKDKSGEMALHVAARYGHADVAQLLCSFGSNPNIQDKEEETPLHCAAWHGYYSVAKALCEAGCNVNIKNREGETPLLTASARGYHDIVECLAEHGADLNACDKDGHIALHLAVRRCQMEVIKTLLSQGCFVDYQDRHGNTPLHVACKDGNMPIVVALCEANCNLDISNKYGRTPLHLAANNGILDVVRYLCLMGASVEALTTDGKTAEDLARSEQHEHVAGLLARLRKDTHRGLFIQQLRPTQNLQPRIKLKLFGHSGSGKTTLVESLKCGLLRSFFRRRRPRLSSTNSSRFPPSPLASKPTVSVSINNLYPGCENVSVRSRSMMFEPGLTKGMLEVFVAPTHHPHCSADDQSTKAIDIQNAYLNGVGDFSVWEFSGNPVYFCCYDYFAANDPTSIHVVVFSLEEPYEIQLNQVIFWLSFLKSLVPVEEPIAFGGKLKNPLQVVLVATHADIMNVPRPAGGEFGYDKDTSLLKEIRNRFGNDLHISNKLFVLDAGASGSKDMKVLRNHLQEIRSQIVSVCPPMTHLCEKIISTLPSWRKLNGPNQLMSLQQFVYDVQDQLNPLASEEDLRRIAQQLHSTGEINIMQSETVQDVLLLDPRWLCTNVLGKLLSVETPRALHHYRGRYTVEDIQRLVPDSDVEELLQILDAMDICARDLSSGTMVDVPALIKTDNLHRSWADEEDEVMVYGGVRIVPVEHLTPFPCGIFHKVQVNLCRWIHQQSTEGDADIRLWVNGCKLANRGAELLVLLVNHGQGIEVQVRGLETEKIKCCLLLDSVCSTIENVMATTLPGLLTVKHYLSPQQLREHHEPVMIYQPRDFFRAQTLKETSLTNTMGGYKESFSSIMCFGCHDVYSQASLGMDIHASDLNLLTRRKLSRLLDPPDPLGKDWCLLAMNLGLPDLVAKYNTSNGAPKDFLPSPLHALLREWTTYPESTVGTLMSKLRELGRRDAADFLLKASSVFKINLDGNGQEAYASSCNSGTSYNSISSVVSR

[3] = target: kinases (KINOMEscan panel) (Homo sapiens, UniProt P48736); details: kinase PIK3CG; NEW KINOMEscan
Chain of kinases (KINOMEscan panel) (Homo sapiens, UniProt P48736) (P48736 whole entry): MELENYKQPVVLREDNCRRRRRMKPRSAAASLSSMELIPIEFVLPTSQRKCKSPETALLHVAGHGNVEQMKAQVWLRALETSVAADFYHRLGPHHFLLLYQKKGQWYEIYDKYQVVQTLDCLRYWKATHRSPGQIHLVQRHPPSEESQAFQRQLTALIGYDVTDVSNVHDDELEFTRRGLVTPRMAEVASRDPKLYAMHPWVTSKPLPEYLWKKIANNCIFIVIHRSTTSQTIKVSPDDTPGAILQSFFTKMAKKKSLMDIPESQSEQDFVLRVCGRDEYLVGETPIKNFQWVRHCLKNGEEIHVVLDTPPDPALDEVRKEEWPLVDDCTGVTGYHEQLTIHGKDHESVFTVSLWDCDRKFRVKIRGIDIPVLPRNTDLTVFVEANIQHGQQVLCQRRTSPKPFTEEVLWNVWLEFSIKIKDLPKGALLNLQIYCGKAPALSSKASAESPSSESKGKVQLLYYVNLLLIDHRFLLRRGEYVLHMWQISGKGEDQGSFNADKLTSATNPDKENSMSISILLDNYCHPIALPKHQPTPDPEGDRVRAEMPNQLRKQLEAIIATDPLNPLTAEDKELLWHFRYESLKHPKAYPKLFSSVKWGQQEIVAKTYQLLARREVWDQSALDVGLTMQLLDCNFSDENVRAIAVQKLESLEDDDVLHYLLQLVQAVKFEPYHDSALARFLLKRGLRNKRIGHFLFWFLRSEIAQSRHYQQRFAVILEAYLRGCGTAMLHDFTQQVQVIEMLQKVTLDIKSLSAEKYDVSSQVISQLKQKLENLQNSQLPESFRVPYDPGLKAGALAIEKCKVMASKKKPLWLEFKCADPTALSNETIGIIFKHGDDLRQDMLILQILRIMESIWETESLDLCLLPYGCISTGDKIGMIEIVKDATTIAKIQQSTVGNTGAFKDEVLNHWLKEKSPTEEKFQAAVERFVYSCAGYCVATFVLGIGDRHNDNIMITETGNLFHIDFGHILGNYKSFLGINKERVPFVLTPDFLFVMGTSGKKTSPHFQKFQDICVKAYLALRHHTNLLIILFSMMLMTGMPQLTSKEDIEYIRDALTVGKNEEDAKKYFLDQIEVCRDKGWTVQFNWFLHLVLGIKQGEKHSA

[4] = target: T1, kinases (KINOMEscan panel) (Homo sapiens, UniProt O00329); details: NEW KINOMEscan
T1 sequence (O00329 1-1044): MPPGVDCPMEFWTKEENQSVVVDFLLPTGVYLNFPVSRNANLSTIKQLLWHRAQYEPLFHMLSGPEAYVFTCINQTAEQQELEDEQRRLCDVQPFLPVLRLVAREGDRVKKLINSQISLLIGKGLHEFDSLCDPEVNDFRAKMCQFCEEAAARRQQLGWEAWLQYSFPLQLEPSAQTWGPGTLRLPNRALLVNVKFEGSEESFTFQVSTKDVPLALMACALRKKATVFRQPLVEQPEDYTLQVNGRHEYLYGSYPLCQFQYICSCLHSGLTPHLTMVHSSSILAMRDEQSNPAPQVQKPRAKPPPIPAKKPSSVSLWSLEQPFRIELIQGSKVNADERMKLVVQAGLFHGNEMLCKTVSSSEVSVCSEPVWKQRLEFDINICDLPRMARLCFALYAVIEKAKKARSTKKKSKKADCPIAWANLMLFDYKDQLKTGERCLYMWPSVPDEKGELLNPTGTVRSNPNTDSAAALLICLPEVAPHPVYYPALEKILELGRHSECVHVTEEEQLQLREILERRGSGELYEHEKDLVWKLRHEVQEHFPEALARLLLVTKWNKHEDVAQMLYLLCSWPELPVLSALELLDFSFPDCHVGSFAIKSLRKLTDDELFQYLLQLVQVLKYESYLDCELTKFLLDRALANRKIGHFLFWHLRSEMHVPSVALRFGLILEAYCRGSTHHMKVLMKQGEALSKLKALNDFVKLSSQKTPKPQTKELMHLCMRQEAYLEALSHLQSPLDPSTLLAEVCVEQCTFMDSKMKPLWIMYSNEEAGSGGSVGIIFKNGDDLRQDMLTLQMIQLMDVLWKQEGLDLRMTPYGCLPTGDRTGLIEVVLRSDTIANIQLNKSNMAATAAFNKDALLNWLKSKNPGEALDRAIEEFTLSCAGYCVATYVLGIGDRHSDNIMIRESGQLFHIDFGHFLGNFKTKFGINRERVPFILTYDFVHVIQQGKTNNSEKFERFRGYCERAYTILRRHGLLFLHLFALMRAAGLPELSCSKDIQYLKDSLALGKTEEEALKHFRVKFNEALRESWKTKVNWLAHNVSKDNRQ

[5] = target: kinases (KINOMEscan panel) (Homo sapiens, UniProt P29317); details: EPHA2; NEW KINOMEscan
Chain of kinases (KINOMEscan panel) (Homo sapiens, UniProt P29317) (P29317 24-976): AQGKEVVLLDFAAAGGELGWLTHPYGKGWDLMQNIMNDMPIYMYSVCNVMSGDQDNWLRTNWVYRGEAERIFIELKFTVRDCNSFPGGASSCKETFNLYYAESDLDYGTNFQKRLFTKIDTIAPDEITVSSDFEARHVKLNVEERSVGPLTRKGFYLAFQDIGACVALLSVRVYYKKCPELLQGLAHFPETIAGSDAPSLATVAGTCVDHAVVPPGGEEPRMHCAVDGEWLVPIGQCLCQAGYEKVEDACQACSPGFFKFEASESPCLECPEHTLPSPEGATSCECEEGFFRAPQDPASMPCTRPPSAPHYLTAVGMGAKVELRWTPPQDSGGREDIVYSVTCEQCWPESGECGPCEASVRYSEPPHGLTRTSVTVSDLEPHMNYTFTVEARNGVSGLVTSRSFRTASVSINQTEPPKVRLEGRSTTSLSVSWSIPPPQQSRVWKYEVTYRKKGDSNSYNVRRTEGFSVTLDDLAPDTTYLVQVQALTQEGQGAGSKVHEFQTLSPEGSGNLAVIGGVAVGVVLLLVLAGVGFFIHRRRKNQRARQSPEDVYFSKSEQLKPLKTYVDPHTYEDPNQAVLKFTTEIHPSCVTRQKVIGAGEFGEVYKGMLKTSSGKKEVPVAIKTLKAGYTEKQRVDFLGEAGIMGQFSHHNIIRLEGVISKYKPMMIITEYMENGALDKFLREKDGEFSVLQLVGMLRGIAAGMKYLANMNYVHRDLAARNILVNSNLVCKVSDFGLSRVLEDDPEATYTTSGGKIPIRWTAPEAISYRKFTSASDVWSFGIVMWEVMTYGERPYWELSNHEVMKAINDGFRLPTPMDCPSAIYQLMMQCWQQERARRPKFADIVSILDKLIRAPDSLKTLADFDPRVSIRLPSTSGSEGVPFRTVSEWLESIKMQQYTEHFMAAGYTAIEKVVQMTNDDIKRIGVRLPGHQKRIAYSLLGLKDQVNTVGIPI

[6] = target: kinases (KINOMEscan panel) (Homo sapiens, UniProt O95819); details: MAP4K4; NEW KINOMEscan
[7] = target: kinases (KINOMEscan panel) (Homo sapiens, UniProt Q5VT25)
[8] = target: T2, kinases (KINOMEscan panel) (Homo sapiens, UniProt Q8IW41)
T2 sequence (Q8IW41 1-473): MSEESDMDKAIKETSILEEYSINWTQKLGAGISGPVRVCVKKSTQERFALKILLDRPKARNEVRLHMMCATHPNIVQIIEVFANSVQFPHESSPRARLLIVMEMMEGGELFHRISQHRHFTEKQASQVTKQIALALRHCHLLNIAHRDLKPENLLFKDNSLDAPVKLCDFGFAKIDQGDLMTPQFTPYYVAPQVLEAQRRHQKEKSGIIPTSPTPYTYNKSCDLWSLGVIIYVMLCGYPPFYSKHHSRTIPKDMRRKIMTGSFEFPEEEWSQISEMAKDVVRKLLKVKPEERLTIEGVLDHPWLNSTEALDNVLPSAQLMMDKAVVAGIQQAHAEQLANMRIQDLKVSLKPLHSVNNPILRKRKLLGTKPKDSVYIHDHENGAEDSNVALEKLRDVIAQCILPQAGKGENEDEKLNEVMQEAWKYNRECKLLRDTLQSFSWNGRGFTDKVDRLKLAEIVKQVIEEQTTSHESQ

[9] = target: kinases (KINOMEscan panel) (Homo sapiens, UniProt P50750); details: kinase CDK9; NEW KINOMEscan
[10] = target: kinases (KINOMEscan panel) (Homo sapiens, UniProt Q9Y6R4); details: MAP3K4; NEW KINOMEscan
Chain of kinases (KINOMEscan panel) (Homo sapiens, UniProt Q9Y6R4) (Q9Y6R4 whole entry): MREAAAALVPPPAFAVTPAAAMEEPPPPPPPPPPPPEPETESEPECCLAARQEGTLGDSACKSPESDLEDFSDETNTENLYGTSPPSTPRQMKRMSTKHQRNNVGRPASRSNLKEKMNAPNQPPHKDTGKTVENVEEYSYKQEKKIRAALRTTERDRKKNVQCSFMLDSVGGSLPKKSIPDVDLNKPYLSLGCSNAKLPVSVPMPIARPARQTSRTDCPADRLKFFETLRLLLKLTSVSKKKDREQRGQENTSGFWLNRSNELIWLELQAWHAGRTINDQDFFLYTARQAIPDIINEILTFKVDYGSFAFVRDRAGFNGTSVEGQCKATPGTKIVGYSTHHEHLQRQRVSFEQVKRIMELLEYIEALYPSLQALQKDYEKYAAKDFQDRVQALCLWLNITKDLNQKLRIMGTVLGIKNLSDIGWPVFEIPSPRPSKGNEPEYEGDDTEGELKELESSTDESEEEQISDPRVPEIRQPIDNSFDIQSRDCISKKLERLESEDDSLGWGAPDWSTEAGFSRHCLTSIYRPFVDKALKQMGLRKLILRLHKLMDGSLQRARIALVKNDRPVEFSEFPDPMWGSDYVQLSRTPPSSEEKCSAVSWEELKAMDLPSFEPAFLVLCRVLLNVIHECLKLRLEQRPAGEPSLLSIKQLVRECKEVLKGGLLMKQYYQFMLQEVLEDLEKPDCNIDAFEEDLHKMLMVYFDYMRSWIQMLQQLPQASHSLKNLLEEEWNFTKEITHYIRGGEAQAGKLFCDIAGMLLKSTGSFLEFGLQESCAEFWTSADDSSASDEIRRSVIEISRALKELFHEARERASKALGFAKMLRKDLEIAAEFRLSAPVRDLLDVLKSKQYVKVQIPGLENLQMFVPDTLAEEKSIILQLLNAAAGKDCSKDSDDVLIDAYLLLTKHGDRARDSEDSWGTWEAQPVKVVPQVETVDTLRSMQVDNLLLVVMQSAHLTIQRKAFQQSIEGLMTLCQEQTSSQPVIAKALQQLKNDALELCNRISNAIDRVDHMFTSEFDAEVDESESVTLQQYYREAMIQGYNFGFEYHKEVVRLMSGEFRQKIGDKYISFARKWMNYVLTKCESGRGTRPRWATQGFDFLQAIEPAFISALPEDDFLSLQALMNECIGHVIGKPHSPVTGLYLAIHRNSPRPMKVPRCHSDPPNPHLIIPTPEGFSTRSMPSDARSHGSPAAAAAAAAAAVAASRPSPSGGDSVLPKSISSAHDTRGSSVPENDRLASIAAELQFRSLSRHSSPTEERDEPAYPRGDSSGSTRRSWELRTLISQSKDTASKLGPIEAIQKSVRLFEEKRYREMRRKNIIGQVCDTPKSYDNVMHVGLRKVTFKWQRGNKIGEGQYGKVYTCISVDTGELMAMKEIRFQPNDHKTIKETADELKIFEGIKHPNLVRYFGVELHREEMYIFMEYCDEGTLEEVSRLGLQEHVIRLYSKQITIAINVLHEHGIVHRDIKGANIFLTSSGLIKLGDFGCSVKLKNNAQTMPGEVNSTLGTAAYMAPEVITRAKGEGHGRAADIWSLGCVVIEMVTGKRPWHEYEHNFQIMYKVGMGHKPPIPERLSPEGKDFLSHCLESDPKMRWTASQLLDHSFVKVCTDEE

[11] = target: T3, kinases (KINOMEscan panel) (Homo sapiens, UniProt Q96BR1); details: kinase SGK3; NEW KINOMEscan
T3 sequence (Q96BR1 1-496): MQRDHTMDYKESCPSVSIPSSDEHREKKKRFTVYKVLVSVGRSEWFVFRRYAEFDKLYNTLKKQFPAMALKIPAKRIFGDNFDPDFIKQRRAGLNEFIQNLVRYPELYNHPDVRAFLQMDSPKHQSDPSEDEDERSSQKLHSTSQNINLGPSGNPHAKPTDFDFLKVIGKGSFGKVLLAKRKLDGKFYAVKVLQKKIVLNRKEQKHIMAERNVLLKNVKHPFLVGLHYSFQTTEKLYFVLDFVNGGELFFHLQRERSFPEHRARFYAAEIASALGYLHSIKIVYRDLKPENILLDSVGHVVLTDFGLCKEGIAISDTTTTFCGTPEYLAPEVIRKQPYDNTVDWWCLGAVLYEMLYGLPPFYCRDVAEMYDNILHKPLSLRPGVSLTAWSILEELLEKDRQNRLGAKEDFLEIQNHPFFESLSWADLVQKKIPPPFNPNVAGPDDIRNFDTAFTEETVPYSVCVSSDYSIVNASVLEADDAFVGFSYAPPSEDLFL

## Cc1cccc(-c2nc(Nc3ccc4nn(C)cc4c3)c3ccccc3n2)n1 [NK167]
[1]
  KINOMEscan CAMK2D: 0
[2]
  KINOMEscan DAPK1: 0
[3]
  KINOMEscan PIK3CG: 0
[4]
  KINOMEscan PIK3CD: 0
[5]
  KINOMEscan EPHA2: 0
[6]
  KINOMEscan MAP4K4: 1
[7]
  KINOMEscan CDC42BPA/MRCKA: 0
[8]; MAPKAPK5, NEW KINOMEscan
  KINOMEscan MAPKAPK5: 0
[9]
  KINOMEscan CDK9: 8
[10]
  KINOMEscan MAP3K4: 3
[11]
  KINOMEscan SGK3: 0

## Cc1cccc(-c2nc(N(C)c3ccc4ncsc4c3)c3ccccc3n2)n1 [NK-161]
[1]
  KINOMEscan CAMK2D: 0
[2]
  KINOMEscan DAPK1: 0
[3]
  KINOMEscan PIK3CG: 8
[4]
  KINOMEscan PIK3CD: 2
[5]
  KINOMEscan EPHA2: 2
[6]
  KINOMEscan MAP4K4: 0
[7]
  KINOMEscan CDC42BPA/MRCKA: 5
[8]
  KINOMEscan MAPKAPK5: 0
[9]
  KINOMEscan CDK9: 4
[10]
  KINOMEscan MAP3K4: 0
[11]
  KINOMEscan SGK3: 13
